Tested on: histamine-induced nasal congestion model
Assay: Histamine-induced nasal congestion model in dogs, oral administration
Assay type: in vivo, Beagle dogs
Description: A histamine-induced nasal congestion model in dogs was performed according to the standard procedure [Tiniakov R. L., Tiniakova O. P., McLeod R. L., Hey J. A., Yeates D. B. Canine model of nasal congestion and allergic rhinitis//J Appl Physiol. 2003. V.94(5). P.1821-1828]. Beagle dogs were injected in the nasal cavity with a 5% histamine solution in a volume of 250 μl/nostril. The volume of the nasal cavity of the right and left nostrils was measured using a rhinometer before and 5, 10, 15, 20, 30, 40, 50 and 60 minutes after administration of histamine. Three experiments were performed, in which Compound I was administered orally once at different times: 1) 30 minutes before administration of histamine; 2) 1 hour before administration of histamine; and 3) 6 hours before administration of histamine, and one experiment was performed, in which Compound I was administered orally once daily for 14 days, the last administration was carried out 1 hour before administration of histamine.

[1] = oral 6 hours before histamine, 0.54 mg/kg, 40 minutes after histamine
[2] = oral 6 hours before histamine, 0.54 mg/kg, 50 minutes after histamine
[3] = oral 6 hours before histamine, 0.54 mg/kg, 60 minutes after histamine
[4] = oral 6 hours before histamine, 0.54 mg/kg, before histamine administration
[5] = oral for 14 days, 0.13 mg/kg, 5 minutes after histamine
[6] = oral for 14 days, 0.13 mg/kg, 10 minutes after histamine
[7] = oral for 14 days, 0.13 mg/kg, 15 minutes after histamine
[8] = oral for 14 days, 0.13 mg/kg, 20 minutes after histamine
[9] = oral for 14 days, 0.13 mg/kg, 30 minutes after histamine
[10] = oral for 14 days, 0.13 mg/kg, 40 minutes after histamine
[11] = oral for 14 days, 0.13 mg/kg, before histamine administration
[12] = oral for 14 days, 0.27 mg/kg, 5 minutes after histamine
[13] = oral for 14 days, 0.27 mg/kg, 10 minutes after histamine
[14] = oral for 14 days, 0.27 mg/kg, 15 minutes after histamine
[15] = oral for 14 days, 0.27 mg/kg, 20 minutes after histamine
[16] = oral for 14 days, 0.27 mg/kg, 30 minutes after histamine
[17] = oral for 14 days, 0.27 mg/kg, 40 minutes after histamine
[18] = oral for 14 days, 0.27 mg/kg, before histamine administration
[19] = oral for 14 days, 0.54 mg/kg, 5 minutes after histamine
[20] = oral for 14 days, 0.54 mg/kg, 10 minutes after histamine
[21] = oral for 14 days, 0.54 mg/kg, 15 minutes after histamine
[22] = oral for 14 days, 0.54 mg/kg, 20 minutes after histamine
[23] = oral for 14 days, 0.54 mg/kg, before histamine administration
[24] = oral once 30 minutes before histamine, 0.005 mg/kg, 5 minutes after histamine
[25] = oral once 30 minutes before histamine, 0.005 mg/kg, 10 minutes after histamine
[26] = oral once 30 minutes before histamine, 0.005 mg/kg, 15 minutes after histamine
[27] = oral once 30 minutes before histamine, 0.005 mg/kg, 20 minutes after histamine
[28] = oral once 30 minutes before histamine, 0.005 mg/kg, 30 minutes after histamine
[29] = oral once 30 minutes before histamine, 0.005 mg/kg, 40 minutes after histamine
[30] = oral once 30 minutes before histamine, 0.005 mg/kg, 50 minutes after histamine
[31] = oral once 30 minutes before histamine, 0.005 mg/kg, 60 minutes after histamine
[32] = oral once 30 minutes before histamine, 0.005 mg/kg, before histamine administration
[33] = oral once 30 minutes before histamine, 0.05 mg/kg, 5 minutes after histamine
[34] = oral once 30 minutes before histamine, 0.05 mg/kg, 10 minutes after histamine
[35] = oral once 30 minutes before histamine, 0.05 mg/kg, 15 minutes after histamine
[36] = oral once 30 minutes before histamine, 0.05 mg/kg, 20 minutes after histamine
[37] = oral once 30 minutes before histamine, 0.05 mg/kg, 30 minutes after histamine
[38] = oral once 30 minutes before histamine, 0.05 mg/kg, 40 minutes after histamine
[39] = oral once 30 minutes before histamine, 0.05 mg/kg, 50 minutes after histamine
[40] = oral once 30 minutes before histamine, 0.05 mg/kg, 60 minutes after histamine
[41] = oral once 30 minutes before histamine, 0.05 mg/kg, before histamine administration
[42] = oral once 30 minutes before histamine, 0.54 mg/kg, 5 minutes after histamine
[43] = oral once 30 minutes before histamine, 0.54 mg/kg, 10 minutes after histamine
[44] = oral once 30 minutes before histamine, 0.54 mg/kg, 15 minutes after histamine
[45] = oral once 30 minutes before histamine, 0.54 mg/kg, 20 minutes after histamine
[46] = oral once 30 minutes before histamine, 0.54 mg/kg, 30 minutes after histamine
[47] = oral once 30 minutes before histamine, 0.54 mg/kg, 40 minutes after histamine
[48] = oral once 30 minutes before histamine, 0.54 mg/kg, 50 minutes after histamine
[49] = oral once 30 minutes before histamine, 0.54 mg/kg, 60 minutes after histamine
[50] = oral once 30 minutes before histamine, 0.54 mg/kg, before histamine administration

O=C(CC(=O)NCCc1cnc[nH]1)NCCc1cnc[nH]1 [Compound I, N,N′-bis(2-(1H-imidazol-5-yl)ethyl)malonamide]
Volume of the nasal cavity, left nostril [1]: 3.5 ± 0.1$ cm^3 | Volume of the nasal cavity, right nostril [1]: 3.5 ± 0.1$ cm^3 | Volume of the nasal cavity, left nostril [2]: 2.9 ± 0.1$ cm^3 | Volume of the nasal cavity, right nostril [2]: 2.9 ± 0.2$ cm^3 | Volume of the nasal cavity, left nostril [3]: 2.9 ± 0.1$ cm^3 | Volume of the nasal cavity, right nostril [3]: 3.0 ± 0.1$ cm^3 | Volume of the nasal cavity, left nostril [4]: 4.1 ± 0.2 cm^3 | Volume of the nasal cavity, right nostril [4]: 4.1 ± 0.2 cm^3 | Volume of the nasal cavity, left nostril [5]: 2.7 ± 0.2$ cm^3 | Volume of the nasal cavity, right nostril [5]: 2.7 ± 0.2$ cm^3 | Volume of the nasal cavity, left nostril [6]: 3.2 ± 0.2*$ cm^3 | Volume of the nasal cavity, right nostril [6]: 3.3 ± 0.2*$ cm^3 | Volume of the nasal cavity, left nostril [7]: 2.5 ± 0.2*$ cm^3 | Volume of the nasal cavity, right nostril [7]: 2.5 ± 0.1*$ cm^3 | Volume of the nasal cavity, left nostril [8]: 2.4 ± 0.2*$ cm^3 | Volume of the nasal cavity, right nostril [8]: 2.4 ± 0.2*$ cm^3 | Volume of the nasal cavity, left nostril [9]: 3.2 ± 0.2*$ cm^3 | Volume of the nasal cavity, right nostril [9]: 3.2 ± 0.2*$ cm^3 | Volume of the nasal cavity, left nostril [10]: 3.6 ± 0.2*$ cm^3 | Volume of the nasal cavity, right nostril [10]: 3.6 ± 0.2$ cm^3 | Volume of the nasal cavity, left nostril [11]: 4.5 ± 0.1 cm^3 | Volume of the nasal cavity, right nostril [11]: 4.5 ± 0.1 cm^3 | Volume of the nasal cavity, left nostril [12]: 2.8 ± 0.2$ cm^3 | Volume of the nasal cavity, right nostril [12]: 2.7 ± 0.2$ cm^3 | Volume of the nasal cavity, left nostril [13]: 3.6 ± 0.2*$ cm^3 | Volume of the nasal cavity, right nostril [13]: 3.6 ± 0.2*$ cm^3 | Volume of the nasal cavity, left nostril [14]: 2.8 ± 0.3*$ cm^3 | Volume of the nasal cavity, right nostril [14]: 2.8 ± 0.2*$ cm^3 | Volume of the nasal cavity, left nostril [15]: 2.7 ± 0.1*$ cm^3 | Volume of the nasal cavity, right nostril [15]: 2.7 ± 0.2*$ cm^3 | Volume of the nasal cavity, left nostril [16]: 3.3 ± 0.2*$ cm^3 | Volume of the nasal cavity, right nostril [16]: 3.3 ± 0.1*$ cm^3 | Volume of the nasal cavity, left nostril [17]: 3.8 ± 0.2*$ cm^3 | Volume of the nasal cavity, right nostril [17]: 3.8 ± 0.2*$ cm^3 | Volume of the nasal cavity, left nostril [18]: 4.5 ± 0.2 cm^3 | Volume of the nasal cavity, right nostril [18]: 4.5 ± 0.1 cm^3 | Volume of the nasal cavity, left nostril [19]: 3.1 ± 0.3$ cm^3 | Volume of the nasal cavity, right nostril [19]: 2.7 ± 0.2$ cm^3 | Volume of the nasal cavity, left nostril [20]: 3.4 ± 0.2*$ cm^3 | Volume of the nasal cavity, right nostril [20]: 3.4 ± 0.1*$ cm^3 | Volume of the nasal cavity, left nostril [21]: 2.6 ± 0.1*$ cm^3 | Volume of the nasal cavity, right nostril [21]: 2.6 ± 0.1*$ cm^3 | Volume of the nasal cavity, left nostril [22]: 2.5 ± 0.2*$ cm^3 | Volume of the nasal cavity, right nostril [22]: 2.5 ± 0.2*$ cm^3 | Volume of the nasal cavity, left nostril [23]: 4.4 ± 0.1 cm^3 | Volume of the nasal cavity, right nostril [23]: 4.5 ± 0.1 cm^3 | Volume of the nasal cavity, left nostril [24]: 3.5 ± 0.2$ cm^3 | Volume of the nasal cavity, right nostril [24]: 3.4 ± 0.1$ cm^3 | Volume of the nasal cavity, left nostril [25]: 2.6 ± 0.2$ cm^3 | Volume of the nasal cavity, right nostril [25]: 2.5 ± 0.2$ cm^3 | Volume of the nasal cavity, left nostril [26]: 2.2 ± 0.2$^ cm^3 | Volume of the nasal cavity, right nostril [26]: 2.1 ± 0.2$^ cm^3 | Volume of the nasal cavity, left nostril [27]: 1.9 ± 0.3 cm^3 | Volume of the nasal cavity, right nostril [27]: 2.0 ± 0.2$^ cm^3 | Volume of the nasal cavity, left nostril [28]: 2.5 ± 0.1&$ cm^3 | Volume of the nasal cavity, right nostril [28]: 2.8 ± 0.2&$ cm^3 | Volume of the nasal cavity, left nostril [29]: 3.9 ± 0.1& cm^3 | Volume of the nasal cavity, right nostril [29]: 3.8 ± 0.2& cm^3 | Volume of the nasal cavity, left nostril [30]: 3.9 ± 0.1& cm^3 | Volume of the nasal cavity, right nostril [30]: 4.0 ± 0.2& cm^3 | Volume of the nasal cavity, left nostril [31]: 4.0 ± 0.1 cm^3 | Volume of the nasal cavity, right nostril [31]: 3.5 ± 0.1$ cm^3 | Volume of the nasal cavity, left nostril [32]: 4.3 ± 0.3 cm^3 | Volume of the nasal cavity, right nostril [32]: 4.6 ± 0.3 cm^3 | Volume of the nasal cavity, left nostril [33]: 3.4 ± 0.1$ cm^3 | Volume of the nasal cavity, right nostril [33]: 3.3 ± 0.2$ cm^3 | Volume of the nasal cavity, left nostril [34]: 2.5 ± 0.1$ cm^3 | Volume of the nasal cavity, right nostril [34]: 2.4 ± 0.2$ cm^3 | Volume of the nasal cavity, left nostril [35]: 2.8 ± 0.1&$ cm^3 | Volume of the nasal cavity, right nostril [35]: 2.6 ± 0.2&$ cm^3 | Volume of the nasal cavity, left nostril [36]: 3.3 ± 0.1&$ cm^3 | Volume of the nasal cavity, right nostril [36]: 3.3 ± 0.3&$ cm^3 | Volume of the nasal cavity, left nostril [37]: 4.1 ± 0.1& cm^3 | Volume of the nasal cavity, right nostril [37]: 3.8 ± 0.1& cm^3 | Volume of the nasal cavity, left nostril [38]: 4.2 ± 0.3& cm^3 | Volume of the nasal cavity, right nostril [38]: 4.2 ± 0.2& cm^3 | Volume of the nasal cavity, left nostril [39]: 4.2 ± 0.1& cm^3 | Volume of the nasal cavity, right nostril [39]: 4.5 ± 0.1& cm^3 | Volume of the nasal cavity, left nostril [40]: 4.3 ± 0.1 cm^3 | Volume of the nasal cavity, right nostril [40]: 4.5 ± 0.3 cm^3 | Volume of the nasal cavity, left nostril [41]: 4.3 ± 0.2 cm^3 | Volume of the nasal cavity, right nostril [41]: 4.2 ± 0.2 cm^3 | Volume of the nasal cavity, left nostril [42]: 2.9 ± 0.1$ cm^3 | Volume of the nasal cavity, right nostril [42]: 3.0 ± 0.2$ cm^3 | Volume of the nasal cavity, left nostril [43]: 2.6 ± 0.1$ cm^3 | Volume of the nasal cavity, right nostril [43]: 2.5 ± 0.1$ cm^3 | Volume of the nasal cavity, left nostril [44]: 3.7 ± 0.3&$ cm^3 | Volume of the nasal cavity, right nostril [44]: 3.8 ± 0.1&$ cm^3 | Volume of the nasal cavity, left nostril [45]: 3.8 ± 0.2& cm^3 | Volume of the nasal cavity, right nostril [45]: 3.7 ± 0.1&$ cm^3 | Volume of the nasal cavity, left nostril [46]: 3.8 ± 0.1&$ cm^3 | Volume of the nasal cavity, right nostril [46]: 3.8 ± 0.2&$ cm^3 | Volume of the nasal cavity, left nostril [47]: 4.2 ± 0.3& cm^3 | Volume of the nasal cavity, right nostril [47]: 4.2 ± 0.3& cm^3 | Volume of the nasal cavity, left nostril [48]: 3.9 ± 0.2$ cm^3 | Volume of the nasal cavity, right nostril [48]: 4.0 ± 0.3^ cm^3 | Volume of the nasal cavity, left nostril [49]: 4.0 ± 0.1$ cm^3 | Volume of the nasal cavity, right nostril [49]: 4.2 ± 0.3 cm^3 | Volume of the nasal cavity, left nostril [50]: 4.5 ± 0.1 cm^3 | Volume of the nasal cavity, right nostril [50]: 4.5 ± 0.3 cm^3 | Tolerance (oral once daily for 14 days, dogs): not generated | duration of the effect (single oral administration, dogs): at least 6 hours
